{
  "source": "patent US20240398771A1",
  "about": "“TREATMENT OF SCLERODERMA AND RAYNAUD'S SYNDROME” (Aisa Pharma, Inc., priority 2023, published 2024)",
  "key": {"participants with SSc-RP [1]": {"tested_on": "participants with SSc-RP", "experiment": "Average daily Raynaud's Condition Score (RCS)", "format": "in vivo, human", "set-up": "key to Average Daily RCS: Baseline, Mean / Average Daily RCS: Baseline, Median: daily RCS on VAS 0-10 cm scale", "details": "Tadalafil 5 mg; ITT Part A", "text": "(§1) The relevant metrics measured by this tool daily are: • Study medication • SSc-RP symptoms (Reporting an attack including duration of attack) • Severity of the attack considering all symptoms of the attack e.g. tingling, numbness, pain, color changes (VAS 0-10 cm scale) • Participant's location at the time of the attack (inside home/outside home) • Selecting symptoms experienced during the attack (tingling, numbness, pain, color changes, other) • Pain rating during the attack (11-point Likert scale) • The RCS based on how much difficulty participants had with Raynaud's today, how many attacks the participant had, and how long they lasted. Participants will also be asked to consider how much pain, numbness, or other symptoms the Raynaud's caused in fingers (including painful sores), and how much the Raynaud's alone affected the use of hands today (VAS 0-10 cm scale).\nThe RCS is based on how much difficulty participants had with Raynaud's today, how many attacks the participant had, and how long they lasted. In addition participants were and will be asked to consider how much pain, numbness, or other symptoms the Raynaud's caused in fingers (including painful sores), and how much the Raynaud's along affected the use of hand today (VAS 0-10 cm scale).\nThe absolute change in average daily RCS from baseline to the end of each dosing period was and will be a secondary outcome variable. The sponsor-developed participant-informed diary has been and will be used to record data. The average daily RCS is defined as the total RCS divided by the number of days with available diary data of each dosing period. Total RCS during screening period divided by the number of days with available data will be used as baseline for the analysis of all periods. If there are multiple daily RCS scores, the latest daily RCS will be used. The variable will be calculated similar to frequency data as before."}, "participants with SSc-RP [2]": {"tested_on": "participants with SSc-RP", "experiment": "Average duration of weekly RP attacks, all attacks (minutes)", "format": "in vivo, human", "text": "as §1\nThe absolute change in average duration of weekly RP attacks from baseline to the end of each dosing period was and will be a secondary outcome variable. The sponsor-developed participant-informed diary was and will be used to record data. Average duration of weekly RP attacks is defined as the total duration of RP attacks divided by total number of RP attacks within the last 7 days of each dosing period. Total duration of RP attacks during the last 7 days of screening period divided by the total number of RP attacks will be used as baseline for the analysis of all periods. The variable will be calculated similar to frequency data as before."}, "[3]": {"details": "Excluding Outliers, ITT Population - Part A (Table B-6), last 7 days of dosing period"}, "[4]": {"details": "Excluding Outliers, ITT Population - Part A (Table B-6), last 7 days of screening period"}, "[5]": {"details": "ITT Population - Part A (Table B-5), last 7 days of dosing period"}, "[6]": {"details": "ITT Population - Part A (Table B-5), last 7 days of screening period"}},
  "data": [
    {"compound": "CN1CC(=O)N2[C@H](c3ccc4c(c3)OCO4)c3[nH]c4ccccc4c3C[C@@H]2C1=O", "note": "[Tadalafil]", "values": [
      {"measurement": "Average Daily RCS: Baseline, Mean", "setting": "participants with SSc-RP [1]", "value": 7.72},
      {"measurement": "Average Daily RCS: Baseline, Median", "setting": "participants with SSc-RP [1]", "value": 7.72},
      {"measurement": "Average Duration of weekly RP attacks (All Attacks), Max", "setting": "participants with SSc-RP [2]; [3]", "value": "5.9, 5.9 minutes"},
      {"measurement": "Average Duration of weekly RP attacks (All Attacks), Min", "setting": "participants with SSc-RP [2]; [3]", "value": "5.9, 5.9 minutes"},
      {"measurement": "Average Duration of weekly RP attacks (All Attacks), Q1", "setting": "participants with SSc-RP [2]; [3]", "value": "5.95, 5.95 minutes"},
      {"measurement": "Average duration of weekly RP attacks (All Attacks), Change from Baseline, Max", "setting": "participants with SSc-RP [2]; [3]", "value": "−5.0, −5.0 minutes"},
      {"measurement": "Average duration of weekly RP attacks (All Attacks), Change from Baseline, Min", "setting": "participants with SSc-RP [2]; [3]", "value": "−5.0, −5.0 minutes"},
      {"measurement": "Average duration of weekly RP attacks (All Attacks), Percent Change from Baseline, Max", "setting": "participants with SSc-RP [2]; [3]", "value": "−45.6, −45.6%"},
      {"measurement": "Average duration of weekly RP attacks (All Attacks), Percent Change from Baseline, Min", "setting": "participants with SSc-RP [2]; [3]", "value": "−45.6, −45.6%"},
      {"measurement": "Average duration of weekly RP attacks (All Attacks), Baseline, Max", "setting": "participants with SSc-RP [2]; [4]", "value": "10.9, 10.9 minutes"},
      {"measurement": "Average duration of weekly RP attacks (All Attacks), Baseline, Min", "setting": "participants with SSc-RP [2]; [4]", "value": "10.9, 10.9 minutes"},
      {"measurement": "Average duration of weekly RP attacks (All Attacks), Baseline, Q1", "setting": "participants with SSc-RP [2]; [4]", "value": "10.92, 10.92 minutes"},
      {"measurement": "Average duration of weekly RP attacks (All Attacks), Baseline, Q3", "setting": "participants with SSc-RP [2]; [4]", "value": "10.92, 10.92 minutes"},
      {"measurement": "Average Duration of weekly RP attacks (All Attacks)", "setting": "participants with SSc-RP [2]; [5]", "value": 5.9, "unit": "min"},
      {"measurement": "Average Duration of weekly RP attacks (All Attacks), Max", "setting": "participants with SSc-RP [2]; [5]", "value": 818.6, "unit": "min"},
      {"measurement": "Average Duration of weekly RP attacks (All Attacks), Q1", "setting": "participants with SSc-RP [2]; [5]", "value": 5.95, "unit": "min"},
      {"measurement": "Average Duration of weekly RP attacks (All Attacks), Q3", "setting": "participants with SSc-RP [2]; [5]", "value": 818.57, "unit": "min"},
      {"measurement": "Average duration of weekly RP attacks (All Attacks), Change from Baseline", "setting": "participants with SSc-RP [2]; [5]", "value": -5.0, "unit": "min"},
      {"measurement": "Average duration of weekly RP attacks (All Attacks), Change from Baseline, Max", "setting": "participants with SSc-RP [2]; [5]", "value": 188.6, "unit": "min"},
      {"measurement": "Average duration of weekly RP attacks (All Attacks), Change from Baseline, Mean", "setting": "participants with SSc-RP [2]; [5]", "value": 91.80, "unit": "min"},
      {"measurement": "Average duration of weekly RP attacks (All Attacks), Change from Baseline, Median", "setting": "participants with SSc-RP [2]; [5]", "value": 91.80, "unit": "min"},
      {"measurement": "Average duration of weekly RP attacks (All Attacks), Change from Baseline, Q3", "setting": "participants with SSc-RP [2]; [5]", "value": 188.57, "unit": "min"},
      {"measurement": "Average duration of weekly RP attacks (All Attacks), Percent Change from Baseline, Max", "setting": "participants with SSc-RP [2]; [5]", "value": 29.9, "unit": "%"},
      {"measurement": "Average duration of weekly RP attacks (All Attacks), Percent Change from Baseline, Mean", "setting": "participants with SSc-RP [2]; [5]", "value": "−7.81", "unit": "%"},
      {"measurement": "Average duration of weekly RP attacks (All Attacks), Percent Change from Baseline, Median", "setting": "participants with SSc-RP [2]; [5]", "value": "−7.81", "unit": "%"},
      {"measurement": "Average duration of weekly RP attacks (All Attacks), Percent Change from Baseline, Min", "setting": "participants with SSc-RP [2]; [5]", "value": "−45.6", "unit": "%"},
      {"measurement": "Average duration of weekly RP attacks (All Attacks), Percent Change from Baseline, Q3", "setting": "participants with SSc-RP [2]; [5]", "value": 29.93, "unit": "%"},
      {"measurement": "Average duration of weekly RP attacks (All Attacks), Baseline", "setting": "participants with SSc-RP [2]; [6]", "value": 10.9, "unit": "min"},
      {"measurement": "Average duration of weekly RP attacks (All Attacks), Baseline, Max", "setting": "participants with SSc-RP [2]; [6]", "value": 630.0, "unit": "min"},
      {"measurement": "Average duration of weekly RP attacks (All Attacks), Baseline, Q1", "setting": "participants with SSc-RP [2]; [6]", "value": 10.92, "unit": "min"},
      {"measurement": "Average duration of weekly RP attacks (All Attacks), Baseline, Q3", "setting": "participants with SSc-RP [2]; [6]", "value": 630.00, "unit": "min"}
    ]}
  ]
}
